Reference: patent US11800874B2, “Composition comprising a selective herbicide and an algal extract, use of an algal extract for detoxifying plants subjected to treatment with a selective herbicide” (LABORATOIRES GOËMAR, priority 2014, dated 2023)
Like-named read-outs stand apart in the source and are kept apart here.

Columns and labels:
[1] = tested on: Conventional soybean; settings: in vivo
Description: (§1) Conventional soybean (that is to say not genetically modified and therefore not resistant to glyphosate) was planted in a greenhouse and left to grow until the 5-leaf stage.
(§2) A control batch was also cultivated, onto which water was sprayed.

[2] = tested on: Conventional soybean; settings: in vivo; remark: listed apart in the source
Description: as §1, §2

[3] = tested on: Glyphosate-resistant soybean; experiment: Phytotoxicity of spray treatments on glyphosate-resistant soybean (Example 1); settings: 4 weeks after treatment
Description: Glyphosate-resistant soybean was planted in a greenhouse and left to grow until the 5-leaf stage. It was separated into different batches, which were each treated by spraying with the following different compositions:
as §2

Manganese-EDTA complex [Mn]
0%: Necrosed surface area [1] | Plants having a necrosed leaf [1] | Necrosed surface area [2] | Plants having a necrosed leaf [2] | Necrosed surface area ([3]; sprayed composition 0.25% w/v) | Plants having a necrosed leaf ([3]; sprayed composition 0.25% w/v) | Necrosed surface area ([3]; sprayed composition 0.5% w/v) | Plants having a necrosed leaf ([3]; sprayed composition 0.5% w/v)
